Several values for one entry are separate records, joined by “and”; a condition that tells them apart may be missing. Identical values can stand only once. Like-named read-outs stand apart in the source and are kept apart here.
Tests used:
[1] = tested on: adult patients with Gaucher disease Type 3; test: Clinical study in GD-3 patients: resting-state fMRI connectivity; type: in vivo, human; settings: 15 mg/day + imiglucerase, individual Patients 1, 3, 4, 5, 6 (Patient 5 likely non-compliant)
Method: Neurological function-was further evaluated using functional magnetic resonance imaging (fMRI). Patient 2 was excluded because no fMRI data was collected at the Week 52 session. Resting-state fMRI screening sessions were performed at baseline screening, Week 26, and Week 52 visits. Connectivity estimates from four subjects (Patients 1, 3, 4 and 5) were entered into second-level analyses as a “compliant” group. Patient 5 was isolated due to likely non-compliance with study medication, as described above. Analyses were performed as described elsewhere (Smith et al. [2009]).
Spatial analysis of the connectivity between different anatomic regions of the brain is performed to define a correlation coefficient for regressed voxelwise mean intensity.

[2] = tested on: chitotriosidase (CHITO), GM3, GPNMB, ceramide; test: Clinical study in GD-3 patients: exploratory biomarkers; type: in vivo, human
Method: Four exploratory biomarkers were quantified in plasma, serum and/or CSF of GD3 patients at week 4 and week 26: chitotriosidase (CHITO; an enzyme known to be elevated in GD patients) was measured in CSF and serum; GM3 (a glycosphingolipid marker known to be elevated in GD patients) was measured in CSF and plasma; and glycoprotein nonmetastatic melanoma protein B (GPNMB; reportedly a biomarker of neuropathic GD3) was measured in CSF. The results are shown in the table below as percent change from baseline at week 4 and week 26 for each parameter:
In addition, exploratory biomarkers were quantified in CSF of GD3 patients: ceramide (the precursor of GL-1), chitotriosidase (CHITO), GM3, and GPNMB.

[3] = tested on: adult patients with Gaucher disease Type 3; test: Clinical study in GD-3 patients: trail making test (TMT); type: in vivo, human; settings: 15 mg/day + imiglucerase
Source text: The trail making test (TMT) was used to evaluate cognitive function in the patients. The TMT is one of the most widely used neuropsychological tests and is included in most test batteries. The TMT is a diagnostic tool to assess general intelligence and cognitive dysfunctions (Tombaugh et al. [2004]; Cavaco et al. [2013]). In part A of the TMT, subjects are asked to connect a cluster of numbers in ascending order. This task is a combination of visual search and general visual and motor processing speed. Part B presents a sequence which alternates between numbers and letters. Subjects must actively switch between both categories when connecting them in ascending, but alternating order.
TMT-A evaluates mainly perceptual and psychomotor speed. TMT-B assesses more specifically mental flexibility and shifting abilities. TMT B minus TMT A score is used to remove the variance attributable to the graphomotor and visual scanning components of TMT A. This derived score reflects the unique task requirements of TMT B.

[4] = Study 1 Part 1: ascending single-dose pharmacokinetics in healthy volunteers; type: in vivo, human; settings: healthy men; for Tmax: male, human, plasma, read-out: tmax, median
Source text: Study 1 was a 2-part single-center trial in healthy adult male volunteers.
Part 1 of the study enrolled and randomized 55 healthy men (placebo, n=14; 2-, 5-, 15, 25-, 50, and 100-mg doses, n=6 each; 150-mg dose, n=5). Eight healthy men participated in Part 2. […]

[5] = tested on: healthy, human volunteers; test: Phase 1 studies in healthy volunteers: safety; type: in vivo
Method: Compound 2 is also known as venglustat.
In all studies, safety profile was assessed by monitoring treatment-emergent adverse events (TEAEs) through 10 days after last dose of study medication, including serious adverse events [SAEs]), ECG monitoring, laboratory values, and physical examinations.

[6] = Study 2: ascending repeated-dose pharmacokinetics in healthy volunteers; type: in vivo, human; settings: for AUC(0-t) / Cmax / Tmax / CL renal: both sexes, human, oral; for AUC(0-t) / Cmax / Tmax: plasma; for Tmax: read-out: tmax, median (range); for CL renal: urine and plasma
[7] = 15 mg/day + imiglucerase, Week 4, individual Patients 1-5
[8] = 15 mg/day + imiglucerase, Week 26, individual Patients 1-5
[9] = single oral dose 2 mg, fasted (N = 6)
[10] = single oral dose 5 mg, fasted (N = 6)
[11] = single oral dose 15 mg, fasted (N = 6)
[12] = single oral dose 25 mg, fasted (N = 6)
[13] = single oral dose 50 mg, fasted (N = 6)
[14] = single oral dose 100 mg, fasted (N = 6)
[15] = single oral dose 150 mg, fasted (N = 5)

## CC(C)(NC(=O)O[C@@H]1CN2CCC1CC2)c1csc(-c2ccc(F)cc2)n1 [Compound 2, (S)-quinuclidin-3-yl 2-(2-(4-fluorophenyl)thiazol-4-yl)propan-2-ylcarbamate]
[1]
  Change in Correlation Coefficient (connectivity default mode network - executive function network): +0.20 (3×) and −0.13 and +0.70
[2]; 15 mg/day + imiglucerase, 4, 26 and 52 weeks, the four of six patients measurable at baseline
  GM3 in CSF: undetectable
[2]; [7]
  CHITO in CSF, percent change from baseline: −5% and +11% and +9% and −6% (2×)
  CHITO in Serum, percent change from baseline: −11% and +8% and −7% and −12% and −1%
  GM3 in CSF, percent change from baseline: −51% and −59% (2×) and 0%
  GM3 in Plasma, percent change from baseline: −70% and −63% and −65% and −62% and −47%
  GPNMB in CSF, percent change from baseline: −63% and +30% and +9% and −6% and −2%
[2]; [8]
  CHITO in CSF, percent change from baseline: −10% and −11% and +20% and −1% and +68%
  CHITO in Serum, percent change from baseline: −43% and −55% and −1% and +98% and −11%
  GM3 in CSF, percent change from baseline: −51% and 0% (2×) and −59% (2×)
  GM3 in Plasma, percent change from baseline: −86% and −69% and −74% and −72% and +10%
  GPNMB in CSF, percent change from baseline: −14% and 0% and +45% and +10% and −8%
[2]; 15 mg/day + imiglucerase, after 52 weeks
  CSF concentrations of ceramide, CHITO or GPNMB: no significant changes
[3]; 52 weeks, SD=54.3
  Mean difference in time taken to complete Trail B minus Trail A: 66.2 s
[3]; Week 52
  Patients with a TMT-A reduction, excluding Patient 5: four of five
  Patients with a TMT-B reduction, excluding Patient 5: five of five
  Patients with a reduction in the (TMT B−TMT A) time: 5 of 6
  Patients with an improvement in Trail B minus Trial A, excluding Patient 5: four of five
  Patients with reduction in time taken to complete Trail A: Four of six
  Patients with reduction in time taken to complete Trail B: six of six
[4]; [9]
  CL/F, Geometric mean: 6.3 L/h
  CL/F, Mean: 6.43 L/h
[4]; [10]
  CL/F, Geometric mean: 5.8 L/h
  CL/F, Mean: 5.86 L/h
[4]; [11]
  CL/F, Geometric mean: 5.6 L/h
  CL/F, Mean: 5.85 L/h
  Cmax, Geometric mean: 50.7 ng/mL
[4]; [12]
  CL/F, Geometric mean: 5.0 L/h
  CL/F, Mean: 5.18 L/h
  Tmax: 5 h
[4]; [13]
  CL/F, Geometric mean: 5.5 L/h
  CL/F, Mean: 5.75 L/h
[4]; [14]
  CL/F, Geometric mean: 5.3 L/h
  CL/F, Mean: 5.38 L/h
  Tmax: 3 h
[4]; [15]
  CL/F, Geometric mean: 5.6 L/h
  CL/F, Mean: 5.80 L/h
[5]; all Phase 1 studies
  Hematologic or biochemical abnormalities: No clinically relevant hematologic or biochemical abnormalities
  Vital signs: no relevant changes from baseline
[5]; all Phase 1 studies (single 2-150 mg; 5-20 mg daily for 14 days)
  Deaths, SAEs, severe TEAEs, discontinuations: no deaths, SAEs, severe TEAEs, or TEAEs leading to study discontinuation
[5]; single ascending dose and food effect studies
  ECG parameters: no relevant changes
[6]; 5 mg, healthy adults, 5 mg once daily, Day 1 (N = 9), read-out: AUC0-24, Geometric mean (CV)
  AUC(0-t): 292 ng·h/mL
[6]; 5 mg, healthy adults, 5 mg once daily, Day 1 (N = 9), read-out: AUC0-24, Mean (SD)
  AUC(0-t): 296 ng·h/mL
[6]; 5 mg, healthy adults, 5 mg once daily, Day 1 (N = 9), read-out: Cmax, Geometric mean (CV)
  Cmax: 18.2 ng/mL
[6]; 5 mg, healthy adults, 5 mg once daily, Day 1 (N = 9), read-out: Cmax, Mean (SD)
  Cmax: 18.5 ng/mL
[6]; 5 mg, healthy adults, 5 mg once daily, Day 1 (N = 9)
  Tmax: 5 h
[6]; 5 mg, healthy adults, 5 mg once daily, Day 14 (N = 9), read-out: AUC0-24, Geometric mean (CV)
  AUC(0-t): 632 ng·h/mL
[6]; 5 mg, healthy adults, 5 mg once daily, Day 14 (N = 9), read-out: AUC0-24, Mean (SD)
  AUC(0-t): 642 ng·h/mL
[6]; 5 mg, healthy adults, 5 mg once daily, Day 14 (N = 9), read-out: Cmax, Geometric mean (CV)
  Cmax: 36.5 ng/mL
[6]; 5 mg, healthy adults, 5 mg once daily, Day 14 (N = 9), read-out: Cmax, Mean (SD)
  Cmax: 37 ng/mL
[6]; 5 mg, healthy adults, 5 mg once daily, Day 14 (N = 9)
  Tmax: 3 h
[6]; 10 mg, healthy adults, 10 mg once daily, Day 1 (N = 9), read-out: AUC0-24, Geometric mean (CV)
  AUC(0-t): 623 ng·h/mL
[6]; 10 mg, healthy adults, 10 mg once daily, Day 1 (N = 9), read-out: AUC0-24, Mean (SD)
  AUC(0-t): 635 ng·h/mL
[6]; 10 mg, healthy adults, 10 mg once daily, Day 1 (N = 9), read-out: Cmax, Geometric mean (CV)
  Cmax: 37.8 ng/mL
[6]; 10 mg, healthy adults, 10 mg once daily, Day 1 (N = 9), read-out: Cmax, Mean (SD)
  Cmax: 38.5 ng/mL
[6]; 10 mg, healthy adults, 10 mg once daily, Day 1 (N = 9)
  Tmax: 3 h
[6]; 10 mg, healthy adults, 10 mg once daily, Day 14 (N = 9), read-out: AUC0-24, Geometric mean (CV)
  AUC(0-t): 1490 ng·h/mL
[6]; 10 mg, healthy adults, 10 mg once daily, Day 14 (N = 9), read-out: AUC0-24, Mean (SD)
  AUC(0-t): 1550 ng·h/mL
[6]; 10 mg, healthy adults, 10 mg once daily, Day 14 (N = 9), read-out: Cmax, Geometric mean (CV)
  Cmax: 86 ng/mL
[6]; 10 mg, healthy adults, 10 mg once daily, Day 14 (N = 9), read-out: Cmax, Mean (SD)
  Cmax: 89.7 ng/mL
[6]; 10 mg, healthy adults, 10 mg once daily, Day 14 (N = 9)
  Tmax: 2 h
[6]; 20 mg, healthy adults, 20 mg once daily, Day 1 (N = 9), read-out: AUC0-24, Geometric mean (CV)
  AUC(0-t): 1080 ng·h/mL
[6]; 20 mg, healthy adults, 20 mg once daily, Day 1 (N = 9), read-out: AUC0-24, Mean (SD)
  AUC(0-t): 1100 ng·h/mL
[6]; 20 mg, healthy adults, 20 mg once daily, Day 1 (N = 9), read-out: Cmax, Geometric mean (CV)
  Cmax: 66.5 ng/mL
[6]; 20 mg, healthy adults, 20 mg once daily, Day 1 (N = 9), read-out: Cmax, Mean (SD)
  Cmax: 68 ng/mL
[6]; 20 mg, healthy adults, 20 mg once daily, Day 1 (N = 9)
  Tmax: 3.07 h
[6]; 20 mg, healthy adults, 20 mg once daily, Day 14 (N = 9), read-out: AUC0-24, Geometric mean (CV)
  AUC(0-t): 2340 ng·h/mL
[6]; 20 mg, healthy adults, 20 mg once daily, Day 14 (N = 9), read-out: AUC0-24, Mean (SD)
  AUC(0-t): 2420 ng·h/mL
[6]; 20 mg, healthy adults, 20 mg once daily, Day 14 (N = 9), read-out: Cmax, Geometric mean (CV)
  Cmax: 137 ng/mL
[6]; 20 mg, healthy adults, 20 mg once daily, Day 14 (N = 9), read-out: Cmax, Mean (SD)
  Cmax: 142 ng/mL
[6]; 20 mg, healthy adults, 20 mg once daily, Day 14 (N = 9)
  Tmax: 3 h
[6]; 5 mg, healthy adults, 5 mg once daily, Day 14 (N = 9), read-out: CLR(0-24), Mean (SD) (converted)
  CL renal: 25.8 mL/min
[6]; 10 mg, healthy adults, 10 mg once daily, Day 14 (N = 9), read-out: CLR(0-24), Geometric mean (CV) (converted)
  CL renal: 23.3 mL/min
[6]; 10 mg, healthy adults, 10 mg once daily, Day 14 (N = 9), read-out: CLR(0-24), Mean (SD) (converted)
  CL renal: 24.8 mL/min
[6]; 20 mg, healthy adults, 20 mg once daily, Day 14 (N = 9), read-out: CLR(0-24), Geometric mean (CV) (converted)
  CL renal: 33.3 mL/min
[6]; 20 mg, healthy adults, 20 mg once daily, Day 14 (N = 9), read-out: CLR(0-24), Mean (SD) (converted)
  CL renal: 34.5 mL/min
[6]; healthy adults, 5 mg once daily, Day 14 (N = 9)
  CLss/F, Geometric mean (CV): 5.9 (19.5) L/h
[6]; healthy adults, 10 mg once daily, Day 14 (N = 9)
  CLss/F, Geometric mean (CV): 5.0 (24.4) L/h
[6]; healthy adults, 20 mg once daily, Day 14 (N = 9)
  CLss/F, Geometric mean (CV): 6.4 (25.8) L/h
[6]; healthy adults, 5, 10, or 20 mg once daily for 14 days
  Ctrough values over time: reached a plateau after Day 5
[6]; healthy adults, repeated once-daily doses from 5-20 mg
  Time to steady state: ≤ 5 days

— US20220016092A1, “METHODS FOR TREATING SYMPTOMS AND DISORDERS ASSOCIATED WITH LYSOSOMAL STORAGE DISEASES” (GENZYME CORPORATION, priority 2019, published 2022)
